ChEMBL document CHEMBL4831541, “Antibiotic Conjugates with an Artificial MECAM-Based Siderophore Are Potent Agents against Gram-Positive and Gram-Negative Bacterial Pathogens” (2021)
≈ marks a conversion by molar mass, not a printed value. Calls of active or inactive are those of the source. No cut-off for these calls is given here.

Tests used:
[1] = tested on: Staphylococcus aureus; test: Antibacterial activity against Staphylococcus aureus DSM11822 assessed as growth inhibition by measuring minimal concentration at OD600 by visual inspection with iron-limited media incubated for 24 hrs; assay type: functional
[2] = tested on: Enterococcus faecium; test: Antibacterial activity against Enterococcus faecium DSM20477 assessed as growth inhibition by measuring minimal concentration at OD600 by visual inspection with iron-limited media incubated for 24 hrs; assay type: functional
[3] = tested on: Acinetobacter baumannii; test: Antibacterial activity against Acinetobacter baumannii DSM30007 assessed as growth inhibition by measuring minimal concentration at OD600 by visual inspection with iron-limited media incubated for 24 hrs; assay type: functional
[4] = tested on: Escherichia coli; test: Antibacterial activity against Escherichia coli BW25113 assessed as growth inhibition by measuring minimal concentration at OD600 by visual inspection with iron-limited media incubated for 24 hrs; assay type: functional
[5] = tested on: Escherichia coli; test: Recovery of growth in Escherichia coli BW25113 delta entA assessed as reversal of growth at 10 uM in presence of 0.1 uM iron(III) chloride hexahydrate by growth recovery assay; assay type: functional, organism-based
[6] = tested on: Escherichia coli; test: Antibacterial activity against Escherichia coli K-12 BW25113 delta exbB assessed as growth inhibition by measuring minimal concentration at OD600 by visual inspection measured after reintroduction of plasmid expressing exbB Q163 mutant with iron-limited media incubated for 24 hrs; assay type: functional
[7] = tested on: Klebsiella pneumoniae; test: Antibacterial activity against Klebsiella pneumoniae DSM11678 assessed as growth inhibition by measuring minimal concentration at OD600 by visual inspection with iron-limited media incubated for 24 hrs; assay type: functional, organism-based
[8] = tested on: Escherichia coli; test: Antibacterial activity against Escherichia coli delta fepA delta cirA delta fiu assessed as growth inhibition by measuring minimal concentration at OD600 by visual inspection with iron-limited media incubated for 24 hrs; assay type: functional
[9] = tested on: Escherichia coli; test: Antibacterial activity against Escherichia coli delta fepB assessed as growth inhibition by measuring minimal concentration at OD600 by visual inspection with iron-limited media incubated for 24 hrs; assay type: functional
[10] = tested on: Escherichia coli; test: Antibacterial activity against Escherichia coli delta […] delta fiu assessed as growth inhibition by measuring minimal concentration at OD600 by visual inspection with iron-limited media incubated for 24 hrs; assay type: functional
[11] = tested on: Escherichia coli; test: Antibacterial activity against Escherichia coli delta tonB assessed as growth inhibition by measuring minimal concentration at OD600 by visual inspection with iron-limited media incubated for 24 hrs; assay type: functional
[12] = tested on: Escherichia coli; test: Antibacterial activity against Escherichia coli K-12 BW25113 delta exbB assessed as growth inhibition by measuring minimal concentration at OD600 by visual inspection measured after reintroduction of plasmid expressing full length exbB with iron-limited media incubated for 24 hrs; assay type: functional
[13] = tested on: Escherichia coli; test: Antibacterial activity against Escherichia coli delta cirA assessed as growth inhibition by measuring minimal concentration at OD600 by visual inspection with iron-limited media incubated for 24 hrs; assay type: functional
[14] = tested on: Escherichia coli; test: Antibacterial activity against Escherichia coli K-12 BW25113 assessed as growth inhibition after 21 serial passages by measuring minimal concentration at OD600 by visual inspection with iron-limited media incubated for 24 hrs; assay type: functional
[15] = tested on: Escherichia coli; test: Antibacterial activity against wild type Escherichia coli BW25113 assessed as growth inhibition by measuring minimal concentration at OD600 by visual inspection with iron-limited media incubated for 24 hrs; assay type: functional
[16] = tested on: Escherichia coli; test: Antibacterial activity against Escherichia coli delta exbB assessed as growth inhibition by measuring minimal concentration at OD600 by visual inspection with iron-limited media incubated for 24 hrs; assay type: functional
[17] = tested on: Escherichia coli; test: Antibacterial activity against Escherichia coli delta cirA delta fiu assessed as growth inhibition by measuring minimal concentration at OD600 by visual inspection with iron-limited media incubated for 24 hrs; assay type: functional
[18] = tested on: Escherichia coli; test: Antibacterial activity against Escherichia coli delta fepA assessed as growth inhibition by measuring minimal concentration at OD600 by visual inspection with iron-limited media incubated for 24 hrs; assay type: functional
[19] = tested on: Escherichia coli; test: Antibacterial activity against Escherichia coli K-12 BW25113 delta cyoB assessed as growth inhibition by measuring minimal concentration at OD600 measured after reintroduction of plasmid expressing cyoB G269D mutant by visual inspection with iron-limited media incubated for 24 hrs; assay type: functional
[20] = tested on: Escherichia coli; test: Antibacterial activity against Escherichia coli delta fiu assessed as growth inhibition by measuring minimal concentration at OD600 by visual inspection with iron-limited media incubated for 24 hrs; assay type: functional
[21] = tested on: Escherichia coli; test: Antibacterial activity against Escherichia coli K-12 BW25113 delta cyoB assessed as growth inhibition by measuring minimal concentration at OD600 by visual inspection with iron-limited media incubated for 24 hrs; assay type: functional
[22] = tested on: Escherichia coli; test: Antibacterial activity against Escherichia coli delta fepA delta cirA assessed as growth inhibition by measuring minimal concentration at OD600 by visual inspection with iron-limited media incubated for 24 hrs; assay type: functional
[23] = tested on: Pseudomonas aeruginosa; test: Antibacterial activity against Pseudomonas aeruginosa DSM24068 assessed as growth inhibition by measuring minimal concentration at OD600 by visual inspection with iron-limited media incubated for 24 hrs; assay type: functional, organism-based
[24] = tested on: Escherichia coli; test: Antibacterial activity against Escherichia coli delta fepD assessed as growth inhibition by measuring minimal concentration at OD600 by visual inspection with iron-limited media incubated for 24 hrs; assay type: functional
[25] = tested on: Escherichia coli; test: Recovery of growth in Escherichia coli BW25113 delta entA delta fepA double knock out assessed as reversal of growth at 10 uM in presence of 0.1 uM iron(III) chloride hexahydrate measured after reintroduction of plasmid expressing full length FepA by growth recovery assay; assay type: functional, organism-based
[26] = tested on: Escherichia coli; test: Recovery of growth in Escherichia coli BW25113 delta entA delta fepA double knock out assessed as reversal of growth at 10 uM in presence of 0.1 uM iron(III) chloride hexahydrate by growth recovery assay; assay type: functional, organism-based
[27] = Metal chelating activity assessed as Fe3+-compound complex formation measured after 17 hrs by chrome azurol S dye based colorimetric assay
[28] = tested on: Escherichia coli; test: Drug uptake in Escherichia coli BW25113 delta entA assessed in membrane fraction pre-treated at 10 uM in presence of 0.1 uM iron(III) chloride hexahydrate by mass spectrometry based cell fractionation assay; assay type: functional, organism-based
[29] = tested on: Escherichia coli; test: Drug uptake in Escherichia coli BW25113 delta entA assessed in peri-plasmic fraction pre-treated at 10 uM in presence of 0.1 uM iron(III) chloride hexahydrate by mass spectrometry based cell fractionation assay; assay type: functional, organism-based
[30] = tested on: Escherichia coli; test: Drug uptake in Escherichia coli BW25113 delta entA assessed in cytoplasmic fraction pre-treated at 10 uM in presence of 0.1 uM iron(III) chloride hexahydrate by mass spectrometry based cell fractionation assay; assay type: functional, organism-based

SMILES	MIC [1] [µM]	MIC [2] [µM]	MIC [3] [µM]	MIC [4] [µM]	Activity [5]	Activity [7]	Activity [23]	further results
CCCCCCCCCC(=O)N[C@@H](Cc1c[nH]c2ccccc12)C(=O)N[C@H](CC(N)=O)C(=O)N[C@@H](CC(=O)O)C(=O)N[C@@H]1C(=O)NCC(=O)N[C@@H](CCCN)C(=O)N[C@@H](CC(=O)O)C(=O)N[C@H](C)C(=O)N[C@@H](CC(=O)O)C(=O)NCC(=O)N[C@H](CO)C(=O)N[C@@H]([C@H](C)CC(=O)O)C(=O)N[C@@H](CC(=O)c2ccccc2N)C(=O)O[C@@H]1C	0.36 (≈ 0.583 µg/mL)	0.62 (≈ 1 µg/mL)	> 39	> 64	–	–	–	–
O=C(NCc1cc(CNC(=O)c2cccc(O)c2O)cc(CNC(=O)c2cccc(O)c2O)c1)c1cccc(O)c1O	–	–	–	–	Active	–	–	–
CC(=O)Oc1cccc(C(=O)NCc2cc(CNC(=O)c3cccc(OC(C)=O)c3OC(C)=O)c(NC(=O)CCCc3cn(CCC(=O)N[C@@H](C(=O)N[C@@H]4C(=O)N5[C@@H]4SC(C)(C)[C@@H]5C(=O)O)c4ccccc4)nn3)c(CNC(=O)c3cccc(OC(C)=O)c3OC(C)=O)c2)c1OC(C)=O	0.12 (≈ 0.166 µg/mL)	0.62 (≈ 0.856 µg/mL)	≤ 0.09	≤ 0.09	–	inactive	inactive	MIC [6]: > 12 µM; MIC [8]: > 12 µM; MIC [9]: 2.9 µM (≈ 4.01 µg/mL); MIC [10]: 1.5 µM (≈ 2.07 µg/mL); MIC [11]: > 12 µM; MIC [12]: 2.9 µM (≈ 4.01 µg/mL); MIC [13]: 2.9 µM (≈ 4.01 µg/mL); MIC [14]: > 12 µM; Activity [15]: inactive; MIC [16]: > 12 µM; MIC [17]: 2.9 µM (≈ 4.01 µg/mL); MIC [18]: 2.9 µM (≈ 4.01 µg/mL); MIC [19]: 2.9 µM (≈ 4.01 µg/mL); MIC [20]: 1.5 µM (≈ 2.07 µg/mL); MIC [21]: 2.9 µM (≈ 4.01 µg/mL); MIC [22]: 1.5 µM (≈ 2.07 µg/mL); MIC [24]: 1.5 µM (≈ 2.07 µg/mL)
CC(=O)Oc1cccc(C(=O)NCc2cc(CNC(=O)c3cccc(OC(C)=O)c3OC(C)=O)cc(CNC(=O)c3cccc(OC(C)=O)c3OC(C)=O)c2)c1OC(C)=O	–	–	–	–	Active	–	–	–
CC(=O)Oc1cccc(C(=O)NCc2cc(CNC(=O)c3cccc(OC(C)=O)c3OC(C)=O)c([N+](=O)[O-])c(CNC(=O)c3cccc(OC(C)=O)c3OC(C)=O)c2)c1OC(C)=O	–	–	–	–	Active	–	–	Activity [25]: Active; Activity [26]: inactive
O=C(NCc1cc(CNC(=O)c2cccc(O)c2O)c([N+](=O)[O-])c(CNC(=O)c2cccc(O)c2O)c1)c1cccc(O)c1O	–	–	–	–	Active	–	–	Activity [27]: Active; Drug uptake [28]: Active; Drug uptake [29]: Active; Drug uptake [30]: inactive
CC1(C)S[C@@H]2[C@H](NC(=O)[C@H](NC(=O)CCn3cc(CCCC(=O)Nc4c(CNC(=O)c5cccc(O)c5O)cc(CNC(=O)c5cccc(O)c5O)cc4CNC(=O)c4cccc(O)c4O)nn3)c3ccc(O)cc3)C(=O)N2[C@H]1C(=O)O	> 56	> 56	56 (≈ 64.1 µg/mL)	0.87 (≈ 0.996 µg/mL)	–	inactive	inactive	–
CC(=O)Oc1cccc(C(=O)NCc2cc(CNC(=O)c3cccc(OC(C)=O)c3OC(C)=O)c(NC(=O)CCOCCOCCOCCOCc3cn(CCC(=O)N[C@@H](C(=O)N[C@@H]4C(=O)N5[C@@H]4SC(C)(C)[C@@H]5C(=O)O)c4ccccc4)nn3)c(CNC(=O)c3cccc(OC(C)=O)c3OC(C)=O)c2)c1OC(C)=O	> 64	> 64	64 (≈ 97.9 µg/mL)	0.81 (≈ 1.24 µg/mL)	–	inactive	inactive	–
